We go through six compounds from ChEMBL document CHEMBL1201862, “PubChem BioAssay data set” (2004).

Experiment [1] deals with HEK293. The experiment is described as follows: inhibitors of LMP1-driven NF-kB reporter, dose response, cell-based, HEK293, luciferase, cherry-pick (AID 588343). Format: functional. As to conditions: Homo sapiens.
For experiment [2], the target named is Latent membrane protein 1 (Human herpesvirus 4 (strain B95-8), UniProt P03230). The experiment is described as follows: TES1-eGFP NF-kB reporter inhibition versus Tet-On dsRED, dose response, selectivity assay for LMP1 NF-kB inhibitor project, imaging, HEK293T, dual-color eGFP/dsRED, cherry-picks (AID 588398). It is filed as functional, cell-based.
Experiment [3] can be described thus: cytotoxicity in HEK-293T cells, dose response, cytotoxicity control for BCR NF-kB inhibitor project, luminescence, B-cell screen hits (AID 489021).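 Also: HEK-293T cells carrying an NF-kB luciferase reporter; cells exposed to compound for about 14 hours before viability readout.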 It is filed as functional, cell-based.
The subject of the next experiment is Vero. The experiment is described as follows: cells. It is filed as functional. The following applies: Chlorocebus sabaeus.
For experiment [4], the target named is T1, Insulin-degrading enzyme (Homo sapiens, UniProt P14735).
T1 sequence (P14735 whole entry): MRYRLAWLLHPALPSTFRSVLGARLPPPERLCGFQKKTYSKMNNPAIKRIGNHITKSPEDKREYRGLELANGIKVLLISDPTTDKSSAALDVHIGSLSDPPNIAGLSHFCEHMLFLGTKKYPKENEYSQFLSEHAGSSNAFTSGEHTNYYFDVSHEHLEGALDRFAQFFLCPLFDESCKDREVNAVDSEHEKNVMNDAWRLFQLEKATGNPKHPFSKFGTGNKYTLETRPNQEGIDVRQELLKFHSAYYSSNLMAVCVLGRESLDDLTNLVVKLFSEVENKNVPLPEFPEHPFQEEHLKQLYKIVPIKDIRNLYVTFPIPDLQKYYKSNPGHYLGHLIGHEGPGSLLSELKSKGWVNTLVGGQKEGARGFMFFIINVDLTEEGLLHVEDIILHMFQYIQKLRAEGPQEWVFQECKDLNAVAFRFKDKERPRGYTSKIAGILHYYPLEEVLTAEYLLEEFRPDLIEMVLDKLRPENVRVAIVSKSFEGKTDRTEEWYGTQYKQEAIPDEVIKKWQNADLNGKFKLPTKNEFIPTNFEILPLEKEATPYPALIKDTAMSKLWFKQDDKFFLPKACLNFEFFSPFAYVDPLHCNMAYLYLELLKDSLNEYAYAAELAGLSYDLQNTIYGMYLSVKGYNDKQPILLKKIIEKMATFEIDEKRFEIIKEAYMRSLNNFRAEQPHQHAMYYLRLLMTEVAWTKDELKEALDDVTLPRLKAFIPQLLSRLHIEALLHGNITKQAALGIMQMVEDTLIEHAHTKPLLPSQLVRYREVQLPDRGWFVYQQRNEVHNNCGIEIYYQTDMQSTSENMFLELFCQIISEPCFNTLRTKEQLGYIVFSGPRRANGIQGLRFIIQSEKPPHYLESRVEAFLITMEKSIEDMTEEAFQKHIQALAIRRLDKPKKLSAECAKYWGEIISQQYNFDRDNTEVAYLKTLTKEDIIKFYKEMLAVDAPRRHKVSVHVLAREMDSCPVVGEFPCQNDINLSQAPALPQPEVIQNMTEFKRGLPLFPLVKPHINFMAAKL
The experiment is described as follows: activators of recombinant IDE enzyme, dose response, counter-screen for IDE activator project, biochemical, fluorescence polarization (AID 588681).

A further experiment has as its target T2, ORF 73 (Human herpesvirus 8, UniProt O40947).
T2 sequence (O40947 whole entry): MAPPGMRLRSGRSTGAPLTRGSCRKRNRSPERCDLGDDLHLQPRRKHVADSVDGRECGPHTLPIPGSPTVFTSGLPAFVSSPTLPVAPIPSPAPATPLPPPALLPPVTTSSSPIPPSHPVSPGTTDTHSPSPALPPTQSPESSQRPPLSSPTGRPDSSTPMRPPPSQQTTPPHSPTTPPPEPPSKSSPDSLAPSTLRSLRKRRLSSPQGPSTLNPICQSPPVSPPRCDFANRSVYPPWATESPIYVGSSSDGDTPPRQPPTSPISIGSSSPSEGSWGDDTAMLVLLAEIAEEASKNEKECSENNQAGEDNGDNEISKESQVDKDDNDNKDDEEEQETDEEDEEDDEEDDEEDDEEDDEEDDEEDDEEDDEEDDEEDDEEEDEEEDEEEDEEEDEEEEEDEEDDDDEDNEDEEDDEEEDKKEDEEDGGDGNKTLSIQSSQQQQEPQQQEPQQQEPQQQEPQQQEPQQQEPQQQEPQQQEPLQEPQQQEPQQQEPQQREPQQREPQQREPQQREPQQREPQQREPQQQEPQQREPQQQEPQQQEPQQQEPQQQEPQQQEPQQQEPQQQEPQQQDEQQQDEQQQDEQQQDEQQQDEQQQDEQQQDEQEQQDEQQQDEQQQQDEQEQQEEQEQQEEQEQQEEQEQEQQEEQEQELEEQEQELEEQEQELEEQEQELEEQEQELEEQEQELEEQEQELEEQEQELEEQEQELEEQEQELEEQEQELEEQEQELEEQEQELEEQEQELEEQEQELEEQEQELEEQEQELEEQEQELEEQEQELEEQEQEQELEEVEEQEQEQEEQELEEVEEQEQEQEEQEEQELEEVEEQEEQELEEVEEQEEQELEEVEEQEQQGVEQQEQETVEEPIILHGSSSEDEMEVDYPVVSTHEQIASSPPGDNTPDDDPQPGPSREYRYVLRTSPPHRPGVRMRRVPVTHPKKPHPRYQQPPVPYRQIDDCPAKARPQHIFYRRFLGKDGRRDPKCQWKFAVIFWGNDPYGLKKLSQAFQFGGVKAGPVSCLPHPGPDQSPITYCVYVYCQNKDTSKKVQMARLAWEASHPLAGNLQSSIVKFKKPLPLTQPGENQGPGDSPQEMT
The experiment is described as follows: inhibitors of C-LANA binding to LBS DNA, dose response, biochemical, fluorescence polarization, cherry-picked samples (AID 504725).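 Also: fluorescence polarization of a labeled DNA duplex reporting LANA DNA binding; potency is for inhibitors that block LANA binding to the DNA.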 Further details: species or system Human gammaherpesvirus 8. (Fluorescence polarisation rises when a labelled molecule tumbles more slowly, as on binding a larger partner.)

Experiment [5] concerns the target T3, Rac GTPase-activating protein 1 (Homo sapiens, UniProt Q9H0H5).
T3 sequence (Q9H0H5 whole entry): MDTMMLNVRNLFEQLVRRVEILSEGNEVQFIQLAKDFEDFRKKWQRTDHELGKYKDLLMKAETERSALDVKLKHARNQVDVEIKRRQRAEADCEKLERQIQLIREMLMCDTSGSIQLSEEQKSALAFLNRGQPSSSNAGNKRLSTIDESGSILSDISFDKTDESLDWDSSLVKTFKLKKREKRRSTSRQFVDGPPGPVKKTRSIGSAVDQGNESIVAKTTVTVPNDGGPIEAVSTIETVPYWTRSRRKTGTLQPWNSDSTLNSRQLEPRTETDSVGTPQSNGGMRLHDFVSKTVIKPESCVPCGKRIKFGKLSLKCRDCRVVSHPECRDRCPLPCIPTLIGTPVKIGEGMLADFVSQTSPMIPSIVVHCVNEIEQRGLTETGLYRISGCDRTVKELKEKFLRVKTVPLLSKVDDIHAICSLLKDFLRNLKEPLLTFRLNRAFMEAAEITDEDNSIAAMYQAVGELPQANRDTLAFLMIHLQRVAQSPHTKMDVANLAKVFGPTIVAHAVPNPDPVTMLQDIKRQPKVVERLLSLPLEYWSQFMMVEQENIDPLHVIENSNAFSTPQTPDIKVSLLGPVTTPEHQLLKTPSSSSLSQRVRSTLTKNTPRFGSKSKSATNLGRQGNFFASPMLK
The experiment is described as follows: MgcRacGAP GTPase-activating activity inhibitors, confirmation, biochemical, ADP Hunter fluorescence, primary and confirmatory (AID 624330). Format: functional.

The test system of experiment [6] is HEK293. The experiment is described as follows: HEK cell cytotoxicity by LDH release, dose response, cytotoxicity control for IDE activator project, fluorescence, HEK cells (AID 588440).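 Also: cytotoxicity by LDH release measuring loss of membrane integrity.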 The following applies: Homo sapiens. Format: functional, cell-based.
The target of experiment [7] is UDP-galactopyranose mutase (Mycobacterium tuberculosis, UniProt P9WIQ1). The experiment is described as follows: Inhibitors of Mycobacterium tuberculosis UDP-galactopyranose mutase (UGM) enzyme Measured in Biochemical System Using Plate Reader - 2105-02_Inhibitor_Dose_CherryPick_Activity. [Related pubchem assays (depositor defined):AID504439].
A further experiment concerns the target Keap1/Nrf2 (Homo sapiens, UniProt Q14145). The experiment is described as follows: Keap1-Nrf2 protein-protein interaction inhibitors, dose response, biochemical, fluorescence polarization, cherry-picked samples (AID 588683).
For experiment [8], the target named is T1, Insulin-degrading enzyme. The experiment is described as follows: activators of endogenous IDE in HEK cells, dose response, cell-based, fluorescence polarization (AID 588439). Format: functional.
Experiment [9] has as its target Dual specificity tyrosine-phosphorylation-regulated kinase 1A (Rattus norvegicus, UniProt Q63470). It is filed as biochemical, Homo sapiens.
Another experiment concerns the target Large T antigen (Simian virus 40, UniProt P03070). Format: functional, Betapolyomavirus macacae.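 Also: Confirmatory-stage PubChem screen for compounds that inhibit SV40 T antigen.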
A further experiment deals with Beta Lactamase (Pseudomonas aeruginosa, UniProt Q932Y6). The experiment is described as follows: beta-lactamase reporter inhibitor potency, dose response, artefact control for TLR9-MyD88 binding inhibitor project, BLA reporter cells, FRET fluorescence (AID 588341).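 Also: cell based assay in CHO-K1 cells stably expressing beta-lactamase.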 It is filed as cell-based.
Experiment [10] concerns HEK293. The experiment is described as follows: optical interference in Abeta FP readout, dose response, artefact control for IDE activator project, biochemical, fluorescence polarization (AID 588442). Format: functional, cell-based. As to conditions: Homo sapiens.
In another experiment the test system is CHO. The experiment is described as follows: cytotoxicity in TLR9-MyD88 CHO cells, dose response, cytotoxicity control for TLR9-MyD88 binding inhibitor project, cell-based, luminescence (AID 588339).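 Also: CHO cells stably coexpressing TLR9 and MyD88 fusions from primary screen; compound exposure lasted 48 hours before viability readout.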 It is filed as functional, hamster. As to conditions: Cricetulus griseus.
Experiment [11] deals with Serine/threonine-protein phosphatase (Candida dubliniensis (strain CD36 / CBS 7987 / NCPF 3949 / NRRLY-17841) (Yeast), UniProt B9W6M3). The experiment is described as follows: calcineurin pathway inhibitors in yeast reporter, dose response, S. cerevisiae, CDRE-lacZ, luminescence, secondary (AID 2388).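 Also: yeast reporter cells carrying a calcineurin-responsive lacZ construct stimulated with calcium chloride; luminescent beta-galactosidase reporter signal in whole cells rather than isolated phosphatase activity; potency for inhibition where a drop in reporter signal means calcineurin blockade.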 Format: functional, cell-based.
Experiment [12] can be described thus: C. albicans growth with fluconazole, confirmation, fluorescence, retest (AID 2467). It is filed as functional, cell-based.
A short description of experiment [13]: NIH-3T3 fibroblast cytotoxicity, dose response, cytotoxicity control, cell-based, fluorescence, Alamar Blue, secondary assay (AID 2327).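 Also: NIH-3T3 mouse fibroblasts cultured with fluconazole at 8 µg/mL.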 It is filed as functional. (The colour change of resazurin is a common sign of viable cells or microbes.)
Experiment [14] addresses ATP-dependent molecular chaperone HSP82 (Candida albicans (strain WO-1) (Yeast), UniProt C4YTQ8). The experiment is described as follows: loss of DOC-induced GRE-beta-galactosidase reporter signal, dose response, Hsp90 inhibitor project, S. cerevisiae, luminescence (AID 2400).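 Also: beta-galactosidase luminescence from glucocorticoid response element reporter as proxy for Hsp90 function; inhibitor potency where signal loss means Hsp90 inhibition.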 Format: functional, cell-based.
Experiment [15] can be described thus: nonselective inhibitors of cellular cAMP signaling, dose response, counter-screen for MC4R biased antagonist project, cell-based, TR-FRET cAMP detection (AID 602305).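 Also: U2OS cells stimulated with forskolin near its EC80 as the cAMP inducer; potency is for inhibition of forskolin-stimulated cAMP signaling.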 Format: functional.
The next experiment deals with Melanocortin receptor 4 (Homo sapiens, UniProt P32245). The experiment is described as follows: MC4R antagonist potency on cAMP, dose response, cell-based, TR-FRET, biased antagonists (AID 602298).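 Also: antagonist potency against agonist-stimulated cAMP production.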 Format: functional. On the technique in general: Time-resolved FRET reads energy transfer from a long-lived donor to a nearby acceptor.
A short description of experiment [16]: CAL PDZ domain peptide-binding inhibitors, dose response, biochemical, fluorescence polarization, untagged CAL PDZ, cherry-pick, set 2 (AID 602254). It is filed as functional.

Active and inactive are the calls of the source. Where only a bound is given, the exact number is not on record here.

Sequence of Latent membrane protein 1 (P03230 whole entry): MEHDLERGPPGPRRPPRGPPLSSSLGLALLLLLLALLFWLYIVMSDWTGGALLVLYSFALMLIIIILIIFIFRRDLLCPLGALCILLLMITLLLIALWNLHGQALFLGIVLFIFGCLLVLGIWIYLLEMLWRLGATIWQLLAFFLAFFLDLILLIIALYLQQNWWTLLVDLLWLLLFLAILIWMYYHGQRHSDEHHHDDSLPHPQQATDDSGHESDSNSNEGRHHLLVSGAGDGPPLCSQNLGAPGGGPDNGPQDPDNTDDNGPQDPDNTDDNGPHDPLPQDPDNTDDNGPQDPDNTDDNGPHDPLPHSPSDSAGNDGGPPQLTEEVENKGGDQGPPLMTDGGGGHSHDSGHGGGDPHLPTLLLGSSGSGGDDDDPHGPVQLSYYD
Sequence of ATP-dependent molecular chaperone HSP82 (C4YTQ8 whole entry): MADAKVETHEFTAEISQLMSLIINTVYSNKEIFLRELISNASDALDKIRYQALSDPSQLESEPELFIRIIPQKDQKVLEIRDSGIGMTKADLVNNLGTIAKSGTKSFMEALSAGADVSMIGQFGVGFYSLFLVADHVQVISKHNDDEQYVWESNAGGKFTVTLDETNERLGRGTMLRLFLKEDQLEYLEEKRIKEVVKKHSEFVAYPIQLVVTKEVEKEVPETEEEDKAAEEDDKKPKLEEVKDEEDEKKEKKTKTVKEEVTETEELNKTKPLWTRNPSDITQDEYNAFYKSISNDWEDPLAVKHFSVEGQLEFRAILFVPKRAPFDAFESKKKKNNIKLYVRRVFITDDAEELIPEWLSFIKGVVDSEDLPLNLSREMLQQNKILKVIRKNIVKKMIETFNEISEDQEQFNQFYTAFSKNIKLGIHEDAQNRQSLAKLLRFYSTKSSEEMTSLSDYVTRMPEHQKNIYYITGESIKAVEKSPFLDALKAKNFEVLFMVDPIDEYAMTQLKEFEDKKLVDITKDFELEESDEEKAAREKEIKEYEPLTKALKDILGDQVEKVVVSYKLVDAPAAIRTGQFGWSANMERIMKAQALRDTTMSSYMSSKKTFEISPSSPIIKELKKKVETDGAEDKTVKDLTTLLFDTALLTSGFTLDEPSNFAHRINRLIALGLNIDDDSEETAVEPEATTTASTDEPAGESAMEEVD
Sequence of Serine/threonine-protein phosphatase (B9W6M3 whole entry): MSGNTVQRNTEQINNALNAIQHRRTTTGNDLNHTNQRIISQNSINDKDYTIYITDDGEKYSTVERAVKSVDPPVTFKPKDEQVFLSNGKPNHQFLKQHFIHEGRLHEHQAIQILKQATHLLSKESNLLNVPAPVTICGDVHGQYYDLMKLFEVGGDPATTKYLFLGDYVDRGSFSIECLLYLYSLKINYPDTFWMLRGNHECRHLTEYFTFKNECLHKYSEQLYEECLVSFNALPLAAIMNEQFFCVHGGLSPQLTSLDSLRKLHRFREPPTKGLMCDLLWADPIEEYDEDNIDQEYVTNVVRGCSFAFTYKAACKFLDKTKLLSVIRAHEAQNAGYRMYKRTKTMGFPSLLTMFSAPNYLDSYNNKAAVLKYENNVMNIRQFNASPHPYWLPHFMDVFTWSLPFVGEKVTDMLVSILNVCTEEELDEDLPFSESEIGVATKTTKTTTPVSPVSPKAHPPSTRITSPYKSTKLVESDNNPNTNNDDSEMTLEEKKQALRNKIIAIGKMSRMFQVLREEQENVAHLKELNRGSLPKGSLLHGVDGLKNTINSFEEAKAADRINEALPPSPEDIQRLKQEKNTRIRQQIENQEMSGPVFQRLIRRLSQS
Sequence of Large T antigen (P03070 whole entry): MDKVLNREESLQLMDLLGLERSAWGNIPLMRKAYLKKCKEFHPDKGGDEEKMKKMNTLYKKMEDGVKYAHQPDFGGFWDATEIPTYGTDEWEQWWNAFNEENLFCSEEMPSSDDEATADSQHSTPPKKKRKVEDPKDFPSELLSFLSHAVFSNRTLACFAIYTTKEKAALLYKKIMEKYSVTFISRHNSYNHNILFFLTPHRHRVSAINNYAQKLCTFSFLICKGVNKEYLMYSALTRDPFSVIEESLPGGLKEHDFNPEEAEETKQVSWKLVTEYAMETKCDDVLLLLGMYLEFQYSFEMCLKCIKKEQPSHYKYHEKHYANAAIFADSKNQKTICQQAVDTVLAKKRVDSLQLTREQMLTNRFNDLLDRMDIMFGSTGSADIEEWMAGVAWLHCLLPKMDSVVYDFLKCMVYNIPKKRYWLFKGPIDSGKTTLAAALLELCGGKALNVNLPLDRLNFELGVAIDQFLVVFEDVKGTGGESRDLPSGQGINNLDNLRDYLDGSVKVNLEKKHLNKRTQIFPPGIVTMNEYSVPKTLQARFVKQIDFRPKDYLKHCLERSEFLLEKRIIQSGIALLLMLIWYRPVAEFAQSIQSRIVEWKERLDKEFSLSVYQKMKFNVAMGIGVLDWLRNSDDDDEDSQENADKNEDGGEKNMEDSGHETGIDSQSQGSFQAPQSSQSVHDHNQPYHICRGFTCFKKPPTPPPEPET
Sequence of Keap1/Nrf2 (Q16236 whole entry): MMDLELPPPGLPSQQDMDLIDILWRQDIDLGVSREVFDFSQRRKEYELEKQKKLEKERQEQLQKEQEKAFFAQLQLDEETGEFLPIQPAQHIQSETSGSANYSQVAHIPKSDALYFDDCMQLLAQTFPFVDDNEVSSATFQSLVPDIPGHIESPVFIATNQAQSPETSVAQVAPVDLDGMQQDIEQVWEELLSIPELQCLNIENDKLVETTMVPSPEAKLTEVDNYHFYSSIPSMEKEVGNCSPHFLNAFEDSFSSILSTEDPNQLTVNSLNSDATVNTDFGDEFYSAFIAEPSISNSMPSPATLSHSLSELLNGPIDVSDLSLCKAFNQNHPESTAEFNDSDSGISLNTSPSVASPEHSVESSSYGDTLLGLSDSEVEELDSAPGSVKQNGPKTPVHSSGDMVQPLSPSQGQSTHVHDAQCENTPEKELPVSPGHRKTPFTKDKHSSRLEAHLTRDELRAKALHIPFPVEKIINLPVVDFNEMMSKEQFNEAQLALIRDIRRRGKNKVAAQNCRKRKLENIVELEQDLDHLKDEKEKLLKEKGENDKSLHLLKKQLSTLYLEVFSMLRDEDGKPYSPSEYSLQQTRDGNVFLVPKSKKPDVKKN
Sequence of Keap1/Nrf2 (Q14145 whole entry): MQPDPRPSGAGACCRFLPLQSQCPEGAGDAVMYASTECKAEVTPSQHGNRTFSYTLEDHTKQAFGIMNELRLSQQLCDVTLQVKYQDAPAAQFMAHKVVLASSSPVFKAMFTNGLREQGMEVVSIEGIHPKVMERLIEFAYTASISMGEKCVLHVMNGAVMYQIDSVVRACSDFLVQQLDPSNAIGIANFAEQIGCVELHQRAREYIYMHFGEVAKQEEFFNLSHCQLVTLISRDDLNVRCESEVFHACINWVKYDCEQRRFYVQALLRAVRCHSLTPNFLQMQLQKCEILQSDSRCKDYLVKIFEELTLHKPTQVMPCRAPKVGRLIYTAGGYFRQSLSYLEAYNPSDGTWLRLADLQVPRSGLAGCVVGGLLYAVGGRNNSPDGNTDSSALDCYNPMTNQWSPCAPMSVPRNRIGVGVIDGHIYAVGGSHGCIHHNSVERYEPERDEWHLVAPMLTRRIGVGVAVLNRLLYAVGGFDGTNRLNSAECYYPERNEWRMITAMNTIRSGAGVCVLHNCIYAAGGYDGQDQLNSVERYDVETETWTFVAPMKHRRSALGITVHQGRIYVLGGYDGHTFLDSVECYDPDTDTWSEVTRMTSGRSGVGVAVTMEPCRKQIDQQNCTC
Sequence of Melanocortin receptor 4 (P32245 whole entry, the tested form may be a part): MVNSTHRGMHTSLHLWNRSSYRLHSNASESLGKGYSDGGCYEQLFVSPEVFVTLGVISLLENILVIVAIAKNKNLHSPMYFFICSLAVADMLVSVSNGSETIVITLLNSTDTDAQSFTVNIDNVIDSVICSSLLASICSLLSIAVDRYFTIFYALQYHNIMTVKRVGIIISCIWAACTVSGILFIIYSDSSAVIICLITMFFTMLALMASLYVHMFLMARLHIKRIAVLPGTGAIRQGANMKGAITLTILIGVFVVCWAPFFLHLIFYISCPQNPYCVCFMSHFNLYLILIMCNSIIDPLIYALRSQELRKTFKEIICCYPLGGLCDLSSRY
Sequence of Beta Lactamase (Q932Y6 whole entry): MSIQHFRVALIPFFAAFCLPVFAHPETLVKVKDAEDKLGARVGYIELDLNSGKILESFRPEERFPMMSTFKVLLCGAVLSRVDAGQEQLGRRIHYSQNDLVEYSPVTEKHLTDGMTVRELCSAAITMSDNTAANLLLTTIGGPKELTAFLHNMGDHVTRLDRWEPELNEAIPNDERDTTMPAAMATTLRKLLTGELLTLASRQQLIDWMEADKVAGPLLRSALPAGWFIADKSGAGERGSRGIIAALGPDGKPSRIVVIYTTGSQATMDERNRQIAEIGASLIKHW
Sequence of UDP-galactopyranose mutase (P9WIQ1 whole entry): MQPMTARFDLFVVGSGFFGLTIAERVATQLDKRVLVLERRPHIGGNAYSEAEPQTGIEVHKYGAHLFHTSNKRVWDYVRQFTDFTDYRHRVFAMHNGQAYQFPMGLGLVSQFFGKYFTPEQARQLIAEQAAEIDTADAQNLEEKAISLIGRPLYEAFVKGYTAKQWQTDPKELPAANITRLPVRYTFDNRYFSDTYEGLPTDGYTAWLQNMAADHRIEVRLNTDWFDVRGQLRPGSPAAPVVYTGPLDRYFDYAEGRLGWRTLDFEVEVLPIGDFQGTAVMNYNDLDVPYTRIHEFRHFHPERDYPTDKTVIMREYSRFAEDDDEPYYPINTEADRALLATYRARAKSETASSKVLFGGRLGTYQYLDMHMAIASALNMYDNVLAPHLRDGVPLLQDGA

A word on the AC50: it is the concentration giving half of the maximal activity seen. The term IC50 denotes the concentration at which inhibition is half-maximal. As to `COc1cc(-c2[nH]c(C(=O)NCC3CCCO3)cc3c4ccccc4nc2-3)cc(OC)c1OC` (stereo not given), the values for the AC50 (with HEK293 [1]; in [2]) were 37.8 µM (active) and 44.3 µM (active), respectively. For the same compound, the IC50 in experiment [3] was 51.8 µM (inactive).
A word on the CC50: it is the concentration giving 50% cytotoxicity. As for `O=C1/C(=C/c2ccncc2)SC(=S)N1Cc1ccccc1`, the concentration at half-maximal activity (AC50) in the experiment on HEK293 [1] is 0.678 µM (active); in experiment [2], 30.1 µM (active). The CC50 in the experiment with Vero is > 25 µM (active).
As a reminder, the EC50 is the concentration that produces a half-maximal response. In the case of `CC1=NCCc2c1[nH]c1cc(O)ccc21`, the EC50 on Insulin-degrading enzyme [4], at Insulin-degrading enzyme [8] and in the experiment on HEK293 [10] was > 54.6 µM (inactive) each time. For the same compound, the AC50 at ORF 73 is 1.76 µM (active); in experiment [7], 5.89 µM (active); on Keap1/Nrf2, 4.36 µM (active); in experiment [9], 3.13 µM (active). Besides, the IC50 in experiment [5] was 8.73 µM (active); in the experiment on HEK293 [6], > 89.1 µM (inactive); on Large T antigen, 8.18 µM (active); at Beta Lactamase, 7.96 µM (active); in the experiment on CHO it was > 49.8 µM (inactive).
Take `COc1ccc(N(CC(=O)Nc2ccccc2C(N)=O)S(=O)(=O)c2ccc(C)c([N+](=O)[O-])c2)cc1`: the EC50 in experiment [11] was > 180 µM (inactive); in experiment [12], 0.095 µM (active); in experiment [13] it was > 150 µM (inactive); in experiment [14] it was > 160 µM (inactive).
Regarding `CCOc1ccc(C(=O)CCC(=O)NCC(=O)OCc2ccccc2)cc1OCC`, the IC50 (in experiment [15]; on Melanocortin receptor 4) was > 64.6 µM (inactive) in each case.
Turning to `COCCSc1nnc(NC(=O)Cc2ccc(OC)cc2)s1`, the AC50 in experiment [16] was 101 µM (active).
